Tests used:
H522-T1 = assay: Cell growth inhibition assay (CellTiter-Glo); format: cell-based, human; conditions: for IC50: Homo sapiens, 96 h, 4 days incubation; for Selectivity vs. IMR-90, H522-T1: ratio IC50[IMR-90]:IC50[tumor cell line]
Procedure: (§1) Cell Culture and Cell Growth Inhibition Assay.
(§2) The chosen cell lines are all human cancer cell lines except for the 4T1 murine breast cancer line, representing a wide variety of cancer types including breast (MDA-MB-453), kidney (A498), lung (H1975), pancreatic (PANC-1) and endometrial cancer (AN3CA, HEC-1A, and RL95-2), glioblastoma (U251 and U-87MG), melanoma (A2058 and LOXIMVI) and uterine sarcoma (MES-SA). All the cancer cell lines can be obtained from the American Type Culture Collection (ATCC, Manassas, Va., USA) with the exception of U251 which can be provided by the National Cancer Institute Tumor Repository (Frederick, Md.) and is cultured in the standard tissue culture media appropriate for each cell line. All the culture media are supplemented with 10% fetal bovine serum (FBS), 100 I.U./mL penicillin and 100 μg/mL streptomycin. For the cell growth inhibition assay, the cells are seeded in 96-well tissue culture plates at 500-3000 cells/well (seeding density empirically adjusted for each cell line based on growth rate optimization). The cells are allowed to attach for a minimum of 5 h prior to compound administration. The cells are incubated for a period of 4 days after compound addition. Following the incubation period, CellTiter-Glo reagent (Promega, Madison, Wis., USA) is added to all the wells to assess cell proliferation/viability. Luminescence is measured using an Envision microplate reader (Perkin Elmer, Waltham, Mass., USA). The IC50 values were calculated as the concentration which inhibited cell growth to 50% of DMSO control treated cell populations.

A2058 = assay: Cell growth inhibition assay (CellTiter-Glo); format: cell-based, human; conditions: for IC50: Homo sapiens, 96 h, 4 days incubation; for Selectivity vs. IMR-90, A2058: ratio IC50[IMR-90]:IC50[tumor cell line]
Procedure: as §1, §2

[1] = test system: IMR-90 human fibroblast cells; assay: IMR-90 cytotoxicity assay; format: cell-based; conditions: IMR-90, 72 h, read-out: IC50 (nM) Quiescent IMP-90
Description: IMR-90 Cytotoxicity Assay.
To evaluate the effect of compounds of the invention on non-proliferating normal cells, an in vitro cytotoxicity assay developed to distinguish between true antiproliferative activity and general cellular cytotoxicity unrelated to proliferation was used. Rudolph-Owen L A, Salvato K, Cheng C, Wu J, Towle M J and Littlefield B A: A 96-well plate cell-based assay to quantify undesired cytotoxic effects against quiescent non-dividing cells. Proc Amer Assoc Cancer Res 45: 264-265, 2004. In brief, IMR-90 human fibroblast cells, obtained from ATCC, were grown for 4 days to confluency in MEM containing 10% FBS and supplemented with L-glutamine, penicillin/streptomycin. After washing, the medium was replaced with complete MEM containing 0.1% FBS and the cells were cultured for 3 additional days to achieve complete quiescence. A compound of the invention or vehicle control was then added in the continued presence of 0.1% FBS, followed by incubation for 3 days at 37° C. Cell viability was assessed by the measurement of cellular ATPlevels using CellTiter-Glo reagent (Promega).

Hela [2] = conditions: read-out: cytotoxicity (IC50 nM) Hela, CellTiter-Glo, mean ± standard deviation; cited from earlier work
SK-MEL-S [3] = conditions: read-out: cytotoxicity (IC50 nM) SK-MEL-S, CellTiter-Glo, mean ± standard deviation; cited from earlier work
Hela [4] = conditions: cell-based assay, read-out: translation inhibition (EC50 nM) cell-based assay Hela; cited from earlier work
SK-MEL-S [5] = conditions: cell-based assay, read-out: translation inhibition (EC50 nM) cell-based assay SK-MEL-S; cited from earlier work
translation = conditions: in vitro assay; mean ± standard deviation; read-out: translation inhibition (EC50 nM) in vitro assay; cited from earlier work
HCT-116 = assay: Cell growth inhibition assay (CellTiter-Glo); format: cell-based, human; conditions: for IC50: Homo sapiens, 96 h, 4 days incubation; for Selectivity vs. IMR-90, HCT-116: ratio IC50[IMR-90]:IC50[tumor cell line]
Procedure: as §1, §2

BXPC-3 = conditions: pancreas BXPC-3; cited from earlier work
MCF-7 = conditions: breast MCF-7; cited from earlier work
KM20L2 = conditions: colon KM20L2; cited from earlier work
[6] = test system: P388 murine lymphocytic leukemia cell line; conditions: cited from earlier work
SF-268 = conditions: CNS SF-268; cited from earlier work
NCI-H460 = conditions: lung NCI-H460; cited from earlier work
DU-145 = conditions: prostate DU-145; cited from earlier work
HOP62 = conditions: HOP62, lung; cited from earlier work
PC3 = conditions: PC3, prostate; cited from earlier work
DU145 = conditions: DU145, prostate; cited from earlier work
SW620 = conditions: SW620, colon; cited from earlier work
NHDF = conditions: normal; cited from earlier work
MB231 = conditions: MB231, breast; cited from earlier work
ACHN = conditions: kidney; cited from earlier work
H226 = conditions: H226, lung; cited from earlier work
MKN45 = conditions: MKN45, gastric; cited from earlier work

Molecule | IC50 (H522-T1) | Selectivity vs. IMR-90, H522-T1 (H522-T1) | IC50 (A2058) | Selectivity vs. IMR-90, A2058 (A2058) | IC50 [1] | IC50 (Hela [2]) | IC50 (SK-MEL-S [3]) | EC50 (Hela [4]) | EC50 (SK-MEL-S [5]) | EC50 (translation) | other results
C=C(C)C[C@H](OC)[C@H](O)C(=O)N[C@@H](OC)[C@@H]1C/C(=N/OC)C(C)(C)[C@@H](C[C@H](O)[C@@H](C)[C@H]2Cc3c(C)c(O)cc(O)c3C(=O)O2)O1 (stereo in doubt) [C(11)-O-Methyloxime-Irciniastatin B] | 0.8 nM | 58 | 0.5 nM | 92 | 46 nM | – | – | – | – | – | –
C=C(C)C[C@H](OC)[C@H](O)C(=O)N[C@@H](OC)[C@@H]1C[C@@H](O)C(C)(C)[C@@H](C[C@H](O)[C@@H](C)C2Cc3c(C)c(O)cc(O)c3C(=O)O2)O1 (stereo partly shown) [1a] | – | – | – | – | – | 0.64 ± 0.14 nM | 0.27 ± 0.04 nM | 22 ± 1.4 nM | 33 ± 10 nM | 28 ± 7 nM | –
C=C(C)C[C@H](OC)[C@H](O)C(=O)N[C@@H](OC)[C@@H]1CC(=C)C(C)(C)[C@@H](C[C@H](O)[C@@H](C)[C@H]2Cc3c(C)c(O)cc(O)c3C(=O)O2)O1 [C(11)-Exomethylene-Irciniastatin B] | 1.6 nM | 31 | 0.7 nM | 70 | 49 nM | – | – | – | – | – | IC50 (HCT-116): 1 nM; Selectivity vs. IMR-90, HCT-116 (HCT-116): 49
C=C(C)C[C@H](OC)[C@H](O)C(=O)N[C@@H](OC)[C@@H]1C[C@@H](OC(C)=O)C(C)(C)[C@@H](C[C@H](O)[C@@H](C)[C@H]2Cc3c(C)c(O)cc(O)c3C(=O)O2)O1 [C(11)-OAc-Irciniastatin A] | 0.7 nM | 39 | 0.4 nM | 68 | 27 nM | – | – | – | – | – | IC50 (HCT-116): 2 nM; Selectivity vs. IMR-90, HCT-116 (HCT-116): 14
C=C(C)C[C@H](OC)[C@H](O)C(=O)N[C@@H](OC)[C@@H]1C[C@@H](OC(=O)c2ccccc2)C(C)(C)[C@@H](C[C@H](O)[C@@H](C)[C@H]2Cc3c(C)c(O)cc(O)c3C(=O)O2)O1 [C(11)-Obz-Irciniastatin A, C(11)-OBz-Irciniastatin A] | 5.4 nM | 15 | 2.7 nM | 30 | 81 nM | – | – | – | – | – | –
C=C(C)C[C@H](OC)[C@H](O)C(=O)N[C@@H](OC)[C@@H]1CC(=O)C(C)(C)[C@@H](C[C@H](O)[C@@H](C)[C@H]2Cc3c(C)c(O)cc(O)c3C(=O)O2)O1 [Irciniastatin B, (−)-Irciniastatin B] | 0.8 nM | 71 | 0.5 nM | 114 | 57 nM | – | – | – | – | – | IC50 (HCT-116): 3 nM; Selectivity vs. IMR-90, HCT-116 (HCT-116): 19; Growth Inhibition of Cancer Cell Lines (GI50) (BXPC-3): 0.73 ng/mL; Growth Inhibition of Cancer Cell Lines (GI50) (MCF-7): 0.5 ng/mL; Growth Inhibition of Cancer Cell Lines (GI50) (KM20L2): 2.1 ng/mL; Growth Inhibition of Cancer Cell Lines (GI50) [6]: 6 ng/mL; Growth Inhibition of Cancer Cell Lines (GI50) (SF-268): 0.66 ng/mL; Growth Inhibition of Cancer Cell Lines (GI50) (NCI-H460): 1.2 ng/mL; Growth Inhibition of Cancer Cell Lines (GI50) (DU-145): 1.6 ng/mL
C=C(C)C[C@@H](OC)[C@H](O)C(=O)N[C@@H](OC)[C@@H]1C[C@@H](O)C(C)(C)[C@@H](C[C@H](O)[C@@H](C)C2Cc3c(C)c(O)cc(O)c3C(=O)O2)O1 (stereo partly shown) [compound 3] | – | – | – | – | – | 614 ± 267 nM | 352 ± 12.1 nM | 4950 ± 4870 nM | 495 nM | 346 ± 64 nM | –
C=C(C)C[C@H](OC)[C@H](O)C(=O)N[C@H](OC)[C@@H]1C[C@@H](O)C(C)(C)[C@@H](C[C@H](O)[C@@H](C)C2Cc3c(C)c(O)cc(O)c3C(=O)O2)O1 (stereo partly shown) [compound 4] | – | – | – | – | – | > 1000 nM | 763 ± 70 nM | 2200 ± 1410 nM | 843 nM | 318 ± 182 nM | –
C=C(C)C[C@H](OC)[C@H](O)C(=O)N[C@@H](OC)[C@@H]1C[C@@H](O)C(C)(C)[C@@H](C[C@H](O)COC)O1 [compound 5] | – | – | – | – | – | > 1000 nM | > 1000 nM | 1650 ± 1060 nM | 578 nM | 641 ± 262 nM | –
C=C(C)C[C@H](OC)[C@H](O)C(=O)N[C@H](OC)[C@@H]1C[C@@H](O)C(C)(C)[C@@H](C[C@H](O)COC)O1 [compound 6] | – | – | – | – | – | > 1000 nM | > 1000 nM | > 10000 nM | > 10000 nM | > 10000 nM | –
Cc1c(O)cc(O)c2c1CC([C@H](C)[C@@H](O)C[C@H]1O[C@H](C(N)=O)C[C@@H](O)C1(C)C)OC2=O (stereo partly shown) [compound 7] | – | – | – | – | – | > 1000 nM | > 1000 nM | > 10000 nM | > 10000 nM | > 10000 nM | –
C=C1C[C@](OC)([C@H](O)C(=O)NC2OCO[C@H]3[C@@H]2O[C@H](C[C@H](O)CO)C(C)(C)[C@@H]3OC)O[C@H](C)[C@@H]1C (stereo partly shown) [compound 8] | – | – | – | – | – | 2.52 ± 1.39 nM | 3.79 ± 0.04 nM | 59 ± 32 nM | 64 nM | 238 ± 44 nM | –
C[C@@H]1C[C@@H]([C@H](O)CC2CC(=O)NC(=O)C2)C(=O)[C@@H](C)C1 [cycloheximide] | – | – | – | – | – | 2290 ± 1520 nM | 3130 ± 764 nM | 3320 ± 434 nM | 2670 nM | 3150 ± 2350 nM | –
C=C(C)C[C@H](OC)[C@H](O)C(=O)N[C@@H](OC)[C@@H]1C[C@H](O)C(C)(C)[C@@H](C[C@H](O)[C@@H](C)[C@H]2Cc3c(C)c(O)cc(O)c3C(=O)O2)O1 [epi-C(11)-Irciniastatin A] | 0.9 nM | 38 | 0.4 nM | 85 | 34 nM | – | – | – | – | – | IC50 (HCT-116): 3 nM; Selectivity vs. IMR-90, HCT-116 (HCT-116): 11
C11-Deoxyirciniastatin [compound 29] | – | – | – | – | – | – | – | – | – | – | IC50 (HOP62): 0.055 ± 0.002 nM; IC50 (PC3): 0.073 ± 0.006 nM; IC50 (DU145): 0.149 ± 0.005 nM; IC50 (SW620): 0.16 ± 0.015 nM; IC50 (NHDF): 0.066 ± 0.004 nM; IC50 (MB231): 0.142 ± 0.007 nM; IC50 (ACHN): 0.265 ± 0.008 nM; IC50 (H226): 0.034 ± 0.004 nM; IC50 (MKN45): 0.076 ± 0.004 nM
